One assay has as its target T1, BRAF (Homo sapiens, UniProt P15056).
T1 construct: purchased Thermo Fisher Scientific SelectScreen
The assay is described as follows: SelectScreen kinase panel, LanthaScreen Eu kinase binding assay. To be noted: read-out: Inhibition percentage at 1 μM. As for the experimental part: (§1) The inhibitory activities of the compounds against kinases were tested using the SelectScreen Kinase assay from Thermo Fisher Scientific in Waltham, MA, USA. The LanthaScreen Eu kinase binding assay was used to validate the LIMK1 inhibition activity of the compounds, and was performed according to the manufacturer’s protocol (https://www.thermofisher.com/tw/zt/home/industrial/pharma-biopharma/drug-discovery-development/target-and-lead-identification-and-validation/kinasebiology/kinase-activity-assays/lanthascreentm-eu-kinase-binding-assay/lanthascreen-eu-kinase-binding-assay-validation-table.html). This endpoint assay quantifies inhibitor binding through the displacement of a fluorescently labelled ATP-competitive tracer from LIMK1. A mixture of the 100× compounds, 2× LIMK1/antibody mixture (Eu-anti-His), 4× tracer 236, and kinase buffer were mixed sequentially. After incubation at room temperature for 1 h, the mixture was analysed using a fluorescence plate reader. The kinase inhibition assay results were expressed as the average of two replicates.
(§2) Kinase panel screening was carried out using the SelectScreen Kinase Assay (Thermo Fisher Scientific, Waltham, MA, USA). Three complementary assay formats were applied: the Z′-LYTE kinase assay, LanthaScreen Eu kinase binding assay, and Adapta Universal kinase assay. The kinases selected for this study and the corresponding assay formats are summarised in Supplementary Table S1.
A general note: In TR-FRET formats the signal depends on donor and acceptor labels being close together.

The target in another assay is T2, EPHA3 (Homo sapiens, UniProt P29320).
T2 construct: purchased Thermo Fisher Scientific SelectScreen
The assay is described as above. The conditions noted are these: read-out: Inhibition percentage at 1 μM. As for the experimental part: as §1, §2

A further assay concerns the target T3, ICK (Homo sapiens, UniProt Q9UPZ9).
T3 construct: purchased Thermo Fisher Scientific SelectScreen
The description is as above. The conditions noted are these: read-out: Inhibition percentage at 1 μM. As for the experimental part: as §1, §2

A further assay concerns the target T4, LIMK2 (Homo sapiens, UniProt P53671).
T4 construct: purchased Thermo Fisher Scientific SelectScreen
The description is as above. The conditions noted are these: read-out: Inhibition percentage at 1 μM. As for the experimental part:
as §1, §2

For another assay, the target named is T5, MAP2K1 (MEK1) (Homo sapiens, UniProt Q02750).
T5 construct: purchased Thermo Fisher Scientific SelectScreen
The assay is described as above. The conditions noted are these: read-out: Inhibition percentage at 1 μM. As for the experimental part:
as §1, §2

Another assay addresses T6, TGFBR1 (ALK5) (Homo sapiens, UniProt P36897).
T6 construct: purchased Thermo Fisher Scientific SelectScreen
The description is as above. The conditions noted are these: read-out: Inhibition percentage at 1 μM. As for the experimental part: as §1, §2

In another assay the target is T7, VRK2 (Homo sapiens, UniProt Q86Y07).
T7 construct: purchased Thermo Fisher Scientific SelectScreen
The description is as above. To be noted: read-out: Inhibition percentage at 1 μM. As for the experimental part:
as §1, §2

For the next assay, the target named is T8, WEE1 (Homo sapiens, UniProt P30291).
T8 construct: purchased Thermo Fisher Scientific SelectScreen
The assay is described as above. To be noted: read-out: Inhibition percentage at 1 μM. As for the experimental part:
as §1, §2

The target in a further assay is T9, DAPK1 (Homo sapiens, UniProt P53355).
T9 construct: purchased Thermo Fisher Scientific SelectScreen
The assay is described as follows: SelectScreen kinase panel, Adapta Universal kinase assay. The conditions noted are these: read-out: Inhibition percentage at 1 μM. The format is biochemical. As for the experimental part: Kinase panel screening was carried out using the SelectScreen Kinase Assay (Thermo Fisher Scientific, Waltham, MA, USA). Three complementary assay formats were applied: the Z′-LYTE kinase assay, LanthaScreen Eu kinase binding assay, and Adapta Universal kinase assay. The kinases selected for this study and the corresponding assay formats are summarised in Supplementary Table S1. The Adapta Universal Kinase Assay (Thermo Fisher Scientific, Waltham, MA, USA) was used to assess kinase activity. This homogeneous, fluorescence-based immunoassay quantifies kinase activity by detecting ADP produced during the enzymatic reaction, according to the manufacturer’s instructions (https://www.thermofisher.com/tw/zt/home/industrial/pharma-biopharma/drug-discovery-development/target-and-lead-identification-and-validation/kinasebiology/kinase-activity-assays/adapta-universal-kinase-assay.html).

Assay [1] deals with HCT-116. The assay is described as follows: MTT assay (cell viability). The format is cell-based. The conditions noted are these: Homo sapiens, 72 h, mean ± SD. As for the experimental part:
(§3) Colorectal cell line, HCT-116, was purchased from the Bioresource Collection and Research Centre (BCRC, Hsinchu, Taiwan), while HT-29 was obtained from the American Type Culture Collection (ATCC, Manassas, VA, USA). Both cell lines were maintained in McCoy’s 5 A medium (with L-glutamine and 2.2 g/L NaHCO3, M4892, Sigma) supplemented with 10% foetal bovine serum (Corning Incorporated, NY, USA) and 1% penicillin–streptomycin–amphotericin B (100 unit/ml penicillin G, 0.1 mg/ml streptomycin sulphate, 0.25 μg/ml amphotericin B, Corning Incorporated, NY, USA). All cultures were maintained in a humidified incubator at 37 °C with 5% CO2.
(§4) Cells were seeded in 96-well plates at a density of 3 × 10^3 cells/well in 100 μl of culture medium and treated with compounds at the indicated concentrations (0.3, 1, 3, 10, and 30 μM) for 72 h. Following treatment, the 3-(4,5-dimethylthiazol-2-yl)-2,5-diphenyltetrazolium bromide (MTT) solution (5 mg/ml in Phosphate-buffered saline (PBS)) was added to each well to reach a final concentration of 0.5 mg/ml, and the cells were incubated at 37 °C for 1 h. The resulting formazan crystal was dissolved in 100 µl of DMSO, and the absorbance was measured at 550 nm using an ELISA reader (Molecular Device, Sunnyvale, CA, USA).

Assay [2] concerns HT-29. The assay is described as follows: MTT assay (cell viability). The conditions noted are these: Homo sapiens, 72 h, mean ± SD. The class given is cell-based. As for the experimental part:
as §3, §4
On the technique in general: Tetrazolium dyes change colour on reduction, which living cells bring about.

Assay [3] concerns HCT-116. The experiment in a line: Analysis of cell cycle by flow cytometry. The class given is cell-based. To be noted: HCT116; 1, 3, 10, and 30 μM for 72 h. As for the experimental part:
(§5) Cells were seeded in six-well plates at a density of 5 × 10^5 cells/well in a 2 ml culture medium and treated with compounds at the indicated concentration for 72 h. After treatment, cells were collected and fixed with 75% (v/v) ice-cold ethanol at −20 °C for 20 min. The cells were then centrifuged to remove the buffer, resuspended, and stained with 0.5 ml of propidium iodide (PI) staining buffer (80 µg/ml PI, […] RNase A, and 1% Triton X-100 in PBS). The cell cycle distribution was analysed using a BD Accuri™ Flow cytometer and software (Becton Dickinson, Mountain View, CA, USA).
In general terms: A flow cytometer gives signals particle by particle.

In assay [4] the test system is HT-29. The experiment in a line: Analysis of cell cycle by flow cytometry. The class given is cell-based. To be noted: 1, 3, 10, and 30 μM for 72 h. As for the experimental part:
as §5

Experimental findings from publication PMC12624955, “Exploring diarylheptanoid derivatives to target LIMK1 as potential agents against colorectal cancer” (Journal of Enzyme Inhibition and Medicinal Chemistry, 2025) are described below.

As a reminder, the inhibition is the drop in the measured response relative to a control, in per cent. The IC50 is the midpoint of a concentration-inhibition curve. Low values mean greater potency in that assay, high ones weaker potency in that assay.

T6 sequence (P36897 34-503): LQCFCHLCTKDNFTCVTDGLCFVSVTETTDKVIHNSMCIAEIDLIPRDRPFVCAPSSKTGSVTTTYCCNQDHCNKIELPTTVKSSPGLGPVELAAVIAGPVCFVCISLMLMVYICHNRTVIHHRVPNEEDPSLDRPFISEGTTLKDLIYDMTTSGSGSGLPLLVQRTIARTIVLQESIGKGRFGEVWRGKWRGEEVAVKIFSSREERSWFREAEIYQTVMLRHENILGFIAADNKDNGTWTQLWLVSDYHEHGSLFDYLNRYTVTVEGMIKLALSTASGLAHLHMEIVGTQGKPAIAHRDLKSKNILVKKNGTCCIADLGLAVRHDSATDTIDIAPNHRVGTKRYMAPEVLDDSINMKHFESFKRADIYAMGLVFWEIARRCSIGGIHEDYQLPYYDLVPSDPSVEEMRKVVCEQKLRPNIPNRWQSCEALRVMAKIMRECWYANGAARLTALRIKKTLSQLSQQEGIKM
T4 sequence (P53671 whole entry): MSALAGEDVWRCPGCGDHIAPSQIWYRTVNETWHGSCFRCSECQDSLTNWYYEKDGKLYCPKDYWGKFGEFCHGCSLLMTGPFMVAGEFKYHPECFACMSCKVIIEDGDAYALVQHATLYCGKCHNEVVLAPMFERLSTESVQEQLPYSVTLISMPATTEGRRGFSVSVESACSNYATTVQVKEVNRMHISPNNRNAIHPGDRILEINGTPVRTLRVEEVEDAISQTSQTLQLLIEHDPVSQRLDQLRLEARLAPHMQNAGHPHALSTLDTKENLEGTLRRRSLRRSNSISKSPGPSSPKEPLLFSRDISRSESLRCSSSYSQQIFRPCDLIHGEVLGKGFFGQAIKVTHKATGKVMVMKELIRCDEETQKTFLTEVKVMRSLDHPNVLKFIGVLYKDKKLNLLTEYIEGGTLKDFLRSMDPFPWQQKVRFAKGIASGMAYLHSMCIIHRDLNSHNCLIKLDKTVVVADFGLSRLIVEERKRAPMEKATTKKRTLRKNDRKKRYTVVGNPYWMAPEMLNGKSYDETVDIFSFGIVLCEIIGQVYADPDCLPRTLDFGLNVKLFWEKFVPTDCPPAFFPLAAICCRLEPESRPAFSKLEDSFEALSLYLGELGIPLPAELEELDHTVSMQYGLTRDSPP
T9 sequence (P53355 whole entry): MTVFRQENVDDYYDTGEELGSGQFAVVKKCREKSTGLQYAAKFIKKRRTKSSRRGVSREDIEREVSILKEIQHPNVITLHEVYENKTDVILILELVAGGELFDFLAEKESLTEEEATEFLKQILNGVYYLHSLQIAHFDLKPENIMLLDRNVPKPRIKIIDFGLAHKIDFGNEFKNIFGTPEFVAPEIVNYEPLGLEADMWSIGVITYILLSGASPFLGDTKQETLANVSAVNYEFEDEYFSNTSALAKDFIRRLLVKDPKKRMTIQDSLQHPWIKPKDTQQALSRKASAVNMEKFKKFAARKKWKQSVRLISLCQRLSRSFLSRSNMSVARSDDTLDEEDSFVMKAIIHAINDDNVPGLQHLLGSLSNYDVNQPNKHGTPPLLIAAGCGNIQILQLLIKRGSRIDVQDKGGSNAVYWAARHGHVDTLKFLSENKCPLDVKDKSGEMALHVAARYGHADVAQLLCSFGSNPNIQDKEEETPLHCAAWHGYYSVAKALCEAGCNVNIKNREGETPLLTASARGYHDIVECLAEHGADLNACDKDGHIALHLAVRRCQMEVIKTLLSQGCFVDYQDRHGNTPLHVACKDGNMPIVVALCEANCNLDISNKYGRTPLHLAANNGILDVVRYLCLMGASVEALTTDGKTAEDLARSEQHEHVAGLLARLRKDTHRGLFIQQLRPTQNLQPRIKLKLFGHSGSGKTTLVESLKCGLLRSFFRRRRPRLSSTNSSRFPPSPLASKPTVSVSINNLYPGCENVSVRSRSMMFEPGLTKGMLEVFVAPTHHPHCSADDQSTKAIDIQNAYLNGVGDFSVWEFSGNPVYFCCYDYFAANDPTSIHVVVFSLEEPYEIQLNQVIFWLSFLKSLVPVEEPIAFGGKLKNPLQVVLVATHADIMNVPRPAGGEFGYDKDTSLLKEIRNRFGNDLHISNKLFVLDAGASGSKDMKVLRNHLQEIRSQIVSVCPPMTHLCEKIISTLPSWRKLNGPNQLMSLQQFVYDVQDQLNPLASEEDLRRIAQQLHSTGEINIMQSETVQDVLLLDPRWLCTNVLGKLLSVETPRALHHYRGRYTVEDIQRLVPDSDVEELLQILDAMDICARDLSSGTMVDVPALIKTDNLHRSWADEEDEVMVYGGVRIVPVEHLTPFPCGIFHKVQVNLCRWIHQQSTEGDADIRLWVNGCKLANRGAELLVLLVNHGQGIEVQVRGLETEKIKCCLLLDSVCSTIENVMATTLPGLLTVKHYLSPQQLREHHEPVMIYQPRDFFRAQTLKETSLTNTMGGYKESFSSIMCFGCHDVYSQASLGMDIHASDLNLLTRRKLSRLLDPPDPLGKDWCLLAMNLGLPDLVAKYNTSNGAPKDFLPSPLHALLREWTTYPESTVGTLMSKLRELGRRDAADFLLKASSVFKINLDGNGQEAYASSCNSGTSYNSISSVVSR
T2 sequence (P29320 21-983): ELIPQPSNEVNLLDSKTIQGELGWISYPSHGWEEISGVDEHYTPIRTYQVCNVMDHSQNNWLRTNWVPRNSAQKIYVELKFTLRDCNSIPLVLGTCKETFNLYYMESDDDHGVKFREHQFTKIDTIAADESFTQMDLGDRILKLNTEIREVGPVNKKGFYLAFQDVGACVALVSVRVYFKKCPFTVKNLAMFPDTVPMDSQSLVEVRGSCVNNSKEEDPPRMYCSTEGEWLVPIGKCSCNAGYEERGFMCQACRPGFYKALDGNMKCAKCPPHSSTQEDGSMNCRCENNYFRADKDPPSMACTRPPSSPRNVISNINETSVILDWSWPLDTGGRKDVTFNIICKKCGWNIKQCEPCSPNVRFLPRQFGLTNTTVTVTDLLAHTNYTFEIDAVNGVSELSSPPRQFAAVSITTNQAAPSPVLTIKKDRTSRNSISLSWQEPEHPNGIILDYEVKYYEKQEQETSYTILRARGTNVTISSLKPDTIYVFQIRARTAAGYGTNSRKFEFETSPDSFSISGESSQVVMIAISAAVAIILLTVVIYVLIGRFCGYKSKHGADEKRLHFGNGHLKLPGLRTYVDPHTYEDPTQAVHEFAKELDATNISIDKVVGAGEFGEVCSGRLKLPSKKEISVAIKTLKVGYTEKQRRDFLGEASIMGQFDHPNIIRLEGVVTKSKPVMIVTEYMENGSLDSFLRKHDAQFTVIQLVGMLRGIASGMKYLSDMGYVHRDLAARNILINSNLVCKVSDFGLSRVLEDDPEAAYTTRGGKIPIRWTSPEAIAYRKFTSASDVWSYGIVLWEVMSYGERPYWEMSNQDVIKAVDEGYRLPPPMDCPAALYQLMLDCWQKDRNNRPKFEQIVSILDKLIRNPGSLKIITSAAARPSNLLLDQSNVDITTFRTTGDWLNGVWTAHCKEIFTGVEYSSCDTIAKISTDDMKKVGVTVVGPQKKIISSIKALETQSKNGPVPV
T1 sequence (P15056 whole entry): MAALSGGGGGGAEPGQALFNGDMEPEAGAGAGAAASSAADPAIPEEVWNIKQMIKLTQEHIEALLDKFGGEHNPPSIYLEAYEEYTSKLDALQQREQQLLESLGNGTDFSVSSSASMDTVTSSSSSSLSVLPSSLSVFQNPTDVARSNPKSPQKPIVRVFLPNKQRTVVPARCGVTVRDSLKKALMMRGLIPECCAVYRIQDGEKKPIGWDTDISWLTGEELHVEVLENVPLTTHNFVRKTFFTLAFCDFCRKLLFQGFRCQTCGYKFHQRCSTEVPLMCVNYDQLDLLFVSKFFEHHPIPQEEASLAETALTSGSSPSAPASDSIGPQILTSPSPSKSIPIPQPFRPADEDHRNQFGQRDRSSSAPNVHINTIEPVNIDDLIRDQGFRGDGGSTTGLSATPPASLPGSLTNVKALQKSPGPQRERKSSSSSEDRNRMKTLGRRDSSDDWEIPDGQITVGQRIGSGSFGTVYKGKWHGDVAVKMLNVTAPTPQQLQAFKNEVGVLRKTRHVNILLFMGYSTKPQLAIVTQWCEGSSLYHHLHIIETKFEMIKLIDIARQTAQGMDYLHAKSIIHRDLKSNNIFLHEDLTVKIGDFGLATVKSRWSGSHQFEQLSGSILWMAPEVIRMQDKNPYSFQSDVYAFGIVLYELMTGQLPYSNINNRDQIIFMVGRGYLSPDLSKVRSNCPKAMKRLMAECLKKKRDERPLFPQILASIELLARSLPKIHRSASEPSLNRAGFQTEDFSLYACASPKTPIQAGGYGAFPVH
T5 sequence (Q02750 whole entry): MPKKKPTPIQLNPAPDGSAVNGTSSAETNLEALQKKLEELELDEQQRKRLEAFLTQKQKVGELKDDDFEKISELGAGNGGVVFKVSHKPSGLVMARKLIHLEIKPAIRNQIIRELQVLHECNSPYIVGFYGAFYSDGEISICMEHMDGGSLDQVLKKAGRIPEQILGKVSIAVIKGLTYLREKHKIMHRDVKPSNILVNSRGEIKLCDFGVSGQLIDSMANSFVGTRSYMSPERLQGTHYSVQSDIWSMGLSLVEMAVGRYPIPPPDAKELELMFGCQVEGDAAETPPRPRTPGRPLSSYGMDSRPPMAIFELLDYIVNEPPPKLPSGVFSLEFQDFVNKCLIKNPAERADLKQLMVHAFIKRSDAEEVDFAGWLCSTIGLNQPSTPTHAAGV

On to `O=C(/C=C/c1ccc(O)c(O)c1)CCCCn1ccc2c(O)cccc21` [Compound 13a, (E)-1-(3,4-dihydroxyphenyl)-7-(4-hydroxy-1H-indol-1-yl)hept-1-en-3-one], for which the inhibition at 1 µM on BRAF amounted to 16%; at EPHA3, 2%; on ICK, 32%; on LIMK2, 30%; on MAP2K1 (MEK1), 4%; at TGFBR1 (ALK5), 24%. The inhibition at 1 µM at VRK2 is 3%; on WEE1 it was 44%; on DAPK1, -15%. For the same compound, the values for the IC50 with HCT-116 [1] and in the assay with HT-29 [2] were 18.2 ± 0.9 µM and 28.8 ± 0.4 µM, respectively. Also, in the assay on HCT-116 [3], the G0/G1 phase population entry was “decrease in the G0/G1 phase”. Further, the S phase population entry in the assay on HCT-116 [3] is “dose-dependent increase in the S phase”. For the same compound, the “population of Sub-G1 cells” value in the assay on HCT-116 [3] and in the assay on HT-29 [4] was “increased in a dose-dependent manner” each time.
